Experimental data as given in patent US4459302A, “Acyl-1H-1,2,4-triazole derivatives” (Gruppo Lepetit, S.p.A., priority 1978, dated 1984).

Tested on: female Syrian golden hamsters
Assay: antifertility (post-coital post-implantation) activity, subcutaneous, hamsters
Assay type: in vivo, Syrian golden hamster
Settings: Mesocricetus auratus, sc, 336 h; s.c. hamster; dosed days 4-8 of pregnancy, autopsy day 14; read-out: ED50 (100% activity, absence of live fetuses, in 50% of the animals)
Source text: Fertility regulation can usually be achieved in a number of ways through the administration of hormonal substances. These can involve ovulation inhibition, ova transport, fertilization, implantation of the zygote, resorption of the fetus or abortion. Only with ovulation inhibition has there developed a successful method that is clinically useful. The compounds of this invention allow an entirely new approach to this problem in which a non-hormonal compound can be administered parenterally, orally or by intravaginal route once or more times as needed after a "missed period" or to induce termination of a more advanced pregnancy. Representative experiments for assessing antifertility activity were carried out with female Syrian golden hamsters weighing 100 to 130 g. The animals were mated and the presence of sperm in the vagina was taken as evidence of mating. The day sperm was detected and considered day one of pregnancy, since in our laboratories and those of other investigators 90 to 100% of animals that mate as evidenced by vaginal sperm are pregnant.
Pregnancy was later confirmed at the time of autopsy by presence of fetuses or implantation sites in the uterus. Even if an animal aborts the fetus, implantation scars still remain as evidence that the animal has been pregnant. […] The animals were autopsied on day 14 of pregnancy and the uteri were examined for evidence of pregnancy (implantation sites, fetalresorption or live fetuses), hemorrhage, and evidence of abnormalities of the uterus, placenta or fetuses. A compound was considered to be active if there was a reduction of live fetuses in at least 60% of the treated animals and the presence of implantation sites proves the animal to have been pregnant.
The compounds were then studied for dose-activity relationship and the corresponding ED50 values, i.e. 100% activity (absence of live fetuses) in 50% of the animals, were also detrmined. The following Table reports the ED50 values of some representative compounds of the invention as well as that of the above mentioned known substance: […]

| SMILES | ED50 [mg/kg] |
| --- | --- |
| COc1cccc(-c2nc(-c3ccccc3C)n(C)n2)c1 [1-Methyl-3-(3-methoxyphenyl)-5-(2-methylphenyl)-1H-1,2,4,-triazole, reference compound] | > 10 |
| COc1cccc(-c2nc(-c3ccccc3C)n(C(C)=O)n2)c1 [Example 1, 1-Acetyl-3-(3-methoxyphenyl)-5-(2-methylphenyl)-1H-1,2,4-triazole] | 0.05 |
| CCC(=O)n1nc(-c2cccc(OC)c2)nc1-c1ccccc1C [Example 2, 1-Propionyl-3-(3-methoxyphenyl)-5-(2-methylphenyl)-1H-1,2,4-triazole] | 0.07 |
| COc1cccc(-c2nc(-c3ccccc3C)n(C(=O)C(C)(C)C)n2)c1 [Example 3, 1-(2,2-Dimethylpropionyl)-3-(3-methoxyphenyl)-5-(2-methylphenyl)-1H-1,2,4-triazole] | 0.15 |
| COc1cccc(-c2nc(-c3ccc(Cl)cc3C)n(C(C)=O)n2)c1 [Example 5, 1-Acetyl-5-(4-chloro-2-methylphenyl)-3-(3-methoxyphenyl)-1H-1,2,4-triazole] | 0.06 |
| CCc1ccccc1-c1nc(-c2cccc(OC)c2)nn1C(C)=O [Example 6, 1-Acetyl-5-(2-ethylphenyl)-3-(3-methoxyphenyl)-1H-1,2,4-triazole] | 0.04 |
| COc1cccc(-c2nc(-c3ccccc3COC(C)=O)n(C(C)=O)n2)c1 [Example 7, 1-Acetyl-5-(2-acetoxymethylphenyl)-3-(3-methoxyphenyl)-1H-1,2,4-triazole] | 0.04 |
| CCOC(=O)n1nc(-c2cccc(OC)c2)nc1-c1ccccc1CC [Example 8, 1-Carbethoxy-5-(2-ethylphenyl)-3-(3-methoxyphenyl)-1H-1,2,4-triazole] | 0.05 |
| CCc1ccccc1-c1nc(-c2cccc(OC)c2)nn1C(=O)OC [Example 9, 1-Carbomethoxy-5-(2-ethylphenyl)-3-(3-methoxyphenyl)-1H-1,2,4-triazole] | 0.05 |
| CCOC(=O)n1nc(-c2cccc(OC)c2)nc1-c1ccccc1C [Example 10, 1-Carbethoxy-3-(3-methoxyphenyl)-5-(2-methylphenyl)-b 1H-1,2,4-triazole] | 0.06 |
| COc1cccc(-c2nc(-c3ccccc3C)n(C(=O)c3ccccc3)n2)c1 [Example 11, 1-Benzoyl-3-(3-methoxyphenyl)-5-(2-methylphenyl)-1H-1,2,4-triazole] | 0.1 |
| COc1cccc(-c2nc(-c3ccccc3C)n(C(=O)Nc3ccccc3)n2)c1 [Example 13, 3-(3-Methoxyphenyl)-5-(2-methylphenyl)-1-phenylcarbamoyl-1H-1,2,4-triazole] | 0.05 |
| CCNC(=O)n1nc(-c2cccc(OC)c2)nc1-c1ccccc1C [Example 14] | 0.15 |
| CCc1ccccc1-c1nc(-c2cccc(OC)c2)nn1C(=O)NC [Example 15, 5-(2-Ethylphenyl)-3-(3-methoxyphenyl)-1-methylcarbamoyl-1H-1,2,4-triazole] | 0.05 |
| CCc1ccccc1-c1nc(-c2cccc(OC)c2)nn1C(=O)Nc1ccccc1 [Example 16] | 0.05 |
| CCc1ccccc1-c1nc(-c2cccc(OC)c2)nn1C(=O)Nc1ccc(OC)cc1 [Example 17, 5-(2-Ethylphenyl)-3-(3-methoxyphenyl)-1-(4-methoxyphenylcarbamoyl)-1H-1,2,4-triazole] | 0.07 |
| CCc1ccccc1-c1nc(-c2cccc(OC)c2)nn1C(=O)Nc1ccccc1Cl [Example 18] | 0.05 |
| CCc1ccccc1-c1nc(-c2cccc(OC)c2)nn1C(=O)Nc1ccc(Cl)cc1 [Example 19, 1-(4-Chlorophenylcarbamoyl)-5-(2-ethylphenyl)-3-(3-methoxyphenyl)-1H-1,2,4-triazole] | 0.05 |
| CCc1ccccc1-c1nc(-c2cccc(OC)c2)nn1C(=O)Nc1ccc([N+](=O)[O-])cc1 [Example 20, 5-(2-Ethylphenyl)-3-(3-methoxyphenyl)-1-(4-nitrophenyl)carbamoyl-1H-1,2,4-triazole] | 0.05 |
| CCc1ccccc1-c1nc(-c2cccc(OC)c2)nn1C(=O)Nc1ccc(C)cc1 [Example 21a, 5-(2-Ethylphenyl)-3-(3-methoxyphenyl)-1-(4-methylphenylcarbamoyl)-1H-1,2,4-triazole] | 0.05 |
| CCc1ccccc1-c1nc(-c2cccc(OC)c2)n(C(=O)Nc2ccc(C)cc2)n1 [Example 21b, 3-(2-ethylphenyl)-5-(3-methoxyphenyl)-1-(4-methylphenylcarbamoyl)-1H-1,2,4-triazole] | 0.04 |
| COc1cccc(-c2nc(-c3ccccc3C)n(C(=O)Nc3ccc(C)cc3)n2)c1 [Example 22a, 3-(3-methoxyphenyl)-5-(2-methylphenyl)-1-(4-methylphenylcarbamoyl)-1H-1,2,4-triazole] | 0.08 |
| COc1cccc(-c2nc(-c3ccccc3C)nn2C(=O)Nc2ccc(C)cc2)c1 [Example 22b, 5-(3-methoxyphenyl)-3-(2-methylphenyl)-1-(4-methylphenylcarbamoyl)-1H-1,2,4-triazole] | 0.08 |
| COc1cccc(-c2n[nH]c(-c3ccccc3COC(C)=O)n2)c1 [Example 24, 5-(2-Acetoxymethylphenyl)-3-(3-methoxyphenyl)-1H-1,2,4-triazole] | 0.04 |

Same assay, conditions: hamster, 10 mg/kg s.c. daily for 5 days, days 4-8 of pregnancy

| SMILES | activity by the criterion: reduction of live fetuses in at least 60% of the treated animals |
| --- | --- |
| COc1cccc(-c2nc(-c3ccccc3C)n(C)n2)c1 [1-Methyl-3-(3-methoxyphenyl)-5-(2-methylphenyl)-1H-1,2,4,-triazole, reference compound] | much less active |
